Assay results reported in US11021498B2 (Acorda Therapeutics, Inc., priority 2008, dated 2021).
Converted amounts (≈) assume the structure as drawn. Read-outs that look alike come from different tables or passages of the source.

Key:
[1] = background and U.S. Pat. No. 4,322,410; cited from earlier work
[2] = test system: alkaline phosphatase; conditions: requires alkaline phosphatase; cited from earlier work
[3] = Solubility of acetaminophen prodrugs in water; format: physicochemical
[4] = test system: myocytes; conditions: guinea pigs, low-flow global myocardial ischemia 30 minutes, then 60 minutes of reperfusion; cited from earlier work
[5] = cited from earlier work
[6] = Goodman and Gillman's; cited from earlier work
[7] = test system: rat hippocampus; conditions: rat hippocampus insulted with quinolinic acid; cited from earlier work
[8] = water, room temperature, read-out: solubility in water at room temperature
[9] = Anesthesia and Analgesia 101, 90-96, 2005
[10] = British Journal of Anaesthesia 94 (5): 642-648, 2005

solubility [3, 8]	SMILES	water solubility [1]	local tolerance profile [5, 9]	local tolerance profile [5, 10]	also measured
–	CC(=O)Nc1ccc(OP(=O)(O)O)cc1 [4-acetamidophenyl dihydrogen phosphate]	50 g per 100 mL	–	–	time in vitro to yield acetaminophen from the derivative [2]: about 15 hours
~145 mg/mL	CC(=O)Nc1ccc(OCOP(=O)(O)O)cc1 [(4-acetamidophenoxy)methyl dihydrogen phosphate]	–	–	–	solubility ([3]; water, solvent water, read-out: Solubility): 145 mg/mL
~13 mg/mL (≈ 86 mM)	CC(=O)Nc1ccc(O)cc1 [Acetaminophen, N-(4-hydroxyphenyl)acetamide]	about 1.3 g per 100 mL	0%	52%	apoptosis in myocytes [4]: decrease apoptosis in myocytes; half-life [6]: about 2 hours; lipid peroxidation and superoxide anion generation [7]: inhibit both lipid peroxidation and superoxide anion generation
–	CCN(CC)CC(=O)Oc1ccc(NC(C)=O)cc1 [Propacetamol, 4-acetamidophenyl 2-(diethylamino)acetate]	–	49%	90%	–
–	CC(=O)Nc1ccc(OCOP(=O)(O)O)cc1 [Sodium (4-acetamidophenoxy)methyl phosphate]	–	–	–	solubility ([3]; solvent water, phosphate): 160 mg/mL; solubility in water at room temperature ([3]; water, room temperature, phosphate): ~160 mg/mL
